These results are taken from ChEMBL document CHEMBL1681694, “Solution-phase parallel synthesis and screening of anti-tumor activities from fenbufen and ethacrynic acid libraries” (Bioorg Med Chem Lett, 2011).

By IC50 is commonly meant the midpoint of a concentration-inhibition curve.

Assay type in all cases: functional, cell-based
One assay relates to A549. Description: Cytotoxicity against human A549 cells after 2 days by MTT assay. As to conditions: A549, 48 h. Background: Formazan colour is commonly taken as a measure of viable cells.
A further assay has as its system MCF7. Description: Cytotoxicity against human MCF7 cells after 2 days by MTT assay. As to conditions: MCF7, 48 h.
A short description of assay [1]: Cytotoxicity against mouse TRAMP-C1 cells after 2 days by MTT assay. As to conditions: TRAMP-C1, 48 h.
Assay [2] in a line: Cytotoxicity against mouse C26 cells after 2 days by MTT assay. As to conditions: C26, 48 h.

Bounds are passed on as bounds.

As to `Cc1ccc(C)c(OCCCC(C)(C)C(=O)NCCCCNC(=O)CCC(=O)c2ccc(-c3ccccc3)cc2)c1`, the IC50 in the assay with A549 was 9 µM; in the assay on MCF7, 2 µM; in assay [1] it was 40 µM; in assay [2], 10 µM.
In the case of `C=C(CC)C(=O)c1ccc(OCC(=O)NCCCCN)c(Cl)c1Cl`, the values for the IC50 in the assay with A549 and in the assay on MCF7 were 18 µM and 8 µM, respectively.
With `C=C(CC)C(=O)c1ccc(OCC(=O)NCCCCNC(=O)CCC(=O)c2ccc(-c3ccccc3)cc2)c(Cl)c1Cl`, the IC50 with A549 amounted to 19 µM; in the assay with MCF7, 5 µM; in assay [1], 80 µM; in assay [2], 35 µM.
Take `CCCCC(CC)C(=O)NCCCCNC(=O)CCC(=O)c1ccc(-c2ccccc2)cc1` (stereo not given): the half-inhibitory concentration (IC50) in the assay with A549 was 17 µM; in the assay on MCF7, 1 µM; in assay [1] it was 18 µM; in assay [2], 13 µM.
The matching figures for `O=C(O)CCC(=O)c1ccc(-c2ccccc2)cc1` [FENBUFEN]: more than 100 µM, more than 50 µM, more than 100 µM and more than 100 µM.
For `NCCCCNC(=O)CCC(=O)c1ccc(-c2ccccc2)cc1` [FENBUFEN BUTANAMINE], the IC50 is 100 µM in the assay with A549 and 87 µM in the assay with MCF7.
